Measured values published in ChEMBL document CHEMBL3232786, “Therapeutic utility of cannabinoid receptor type 2 (CB(2)) selective agonists” (J Med Chem, 2013).

How the values were obtained:
Cannabinoid receptor 1 [1] = molecular target: T1, Cannabinoid receptor 1 (Homo sapiens, UniProt P21554); assay: Binding affinity to CB1 receptor (unknown origin)
Cannabinoid receptor 2 [2] = molecular target: T2, Cannabinoid receptor 2 (Homo sapiens, UniProt P34972); assay: Agonist activity at human CB2 receptor expressed in human SK-N-MC cells by CRE-beta galactosidase reporter gene assay; type: functional, cell-based
Cannabinoid receptor 1 [3] = molecular target: T1, Cannabinoid receptor 1; assay: Agonist activity at human CB1 receptor expressed in human SK-N-MC cells by CRE-beta galactosidase reporter gene assay; type: functional, cell-based
Cannabinoid receptor 1 [4] = molecular target: T1, Cannabinoid receptor 1; assay: Agonist activity at human CB1 receptor assessed as inhibition of forskolin-induced cAMP production preincubated for 15 mins followed by forskolin challenge measured after 30 mins by HTRF assay; type: functional
Cannabinoid receptor 2 [5] = molecular target: T2, Cannabinoid receptor 2; assay: Agonist activity at human CB2 receptor expressed in Saccharomyces cerevisiae MMY23 using fluorescein di-beta-D-glucopyranoside as substrate after 24 hrs by fluorescence-based assay
Cannabinoid receptor 1 [6] = molecular target: T1, Cannabinoid receptor 1; assay: Agonist activity at human CB1 receptor
Cannabinoid receptor 2 [7] = molecular target: T2, Cannabinoid receptor 2; assay: Agonist activity at human CB2 receptor
Cannabinoid receptor 1 [8] = molecular target: T1, Cannabinoid receptor 1; assay: Binding affinity to human CB1 receptor
Homo sapiens [9] = species: Homo sapiens; assay: Selectivity ratio of Ki for human CB1 receptor to Ki for human CB2 receptor
Cannabinoid receptor 2 [10] = molecular target: T2, Cannabinoid receptor 2; assay: Binding affinity to CB2 receptor (unknown origin)
Cannabinoid receptor 2 [11] = molecular target: T2, Cannabinoid receptor 2; assay: Agonist activity at human CB2 receptor expressed in Sf9 membranes assessed as effect on [35S]-GTPgammaS binding after 30 mins by scintillation counting; type: functional, cell membranes
Cannabinoid receptor 2 [12] = molecular target: T2, Cannabinoid receptor 2; assay: Binding affinity to human CB2 receptor
Cannabinoid receptor 1 [13] = molecular target: Cannabinoid receptor 1 (Rattus norvegicus, UniProt P20272); assay: Binding affinity to rat CB1 receptor
[14] = Selectivity ratio of Ki for rat CB1 receptor to Ki for human CB2 receptor
[15] = Cmax in Sprague-Dawley rat at 10 mg/kg, po by UV-HPLC analysis; type: ADME, organism-based; set-up: dose 10 mg/kg, route oral; conditions: in vivo
[16] = AUC (0 to infinity) in Sprague-Dawley rat at 10 mg/kg, po by UV-HPLC analysis; type: ADME, organism-based; set-up: time infinity, dose 10 mg/kg, route oral; conditions: plasma
[17] = Half life in Sprague-Dawley rat at 10 mg/kg, po by UV-HPLC analysis; type: ADME, organism-based; set-up: dose 10 mg/kg, route oral; conditions: in vivo
Cannabinoid receptor 2 [18] = molecular target: T2, Cannabinoid receptor 2; assay: Agonist activity at human CB2 receptor assessed as inhibition of forskolin-induced cAMP production preincubated for 15 mins followed by forskolin challenge measured after 30 mins by HTRF assay; type: functional
Cannabinoid receptor 2 [19] = molecular target: T2, Cannabinoid receptor 2; assay: Agonist activity at human CB2 receptor transfected in CHO-K1 cells assessed as cAMP change; type: functional, cell-based
Cannabinoid receptor 1 [20] = molecular target: T1, Cannabinoid receptor 1; assay: Agonist activity at human CB1 receptor transfected in CHO-K1 cells assessed as cAMP change; type: functional, cell-based
Homo sapiens [21] = species: Homo sapiens; assay: Selectivity index, ratio of EC50 for human CB1 receptor to EC50 for human CB2 receptor
Cannabinoid receptor 2 [22] = molecular target: T3, Cannabinoid receptor 2 (Rattus norvegicus, UniProt Q9QZN9); assay: Displacement of [3H]-CP55940 from rat CB2 receptor expressed in CHO-K1 cells by liquid scintillation spectrophotometry; type: cell-based
T3 sequence (Q9QZN9 whole entry): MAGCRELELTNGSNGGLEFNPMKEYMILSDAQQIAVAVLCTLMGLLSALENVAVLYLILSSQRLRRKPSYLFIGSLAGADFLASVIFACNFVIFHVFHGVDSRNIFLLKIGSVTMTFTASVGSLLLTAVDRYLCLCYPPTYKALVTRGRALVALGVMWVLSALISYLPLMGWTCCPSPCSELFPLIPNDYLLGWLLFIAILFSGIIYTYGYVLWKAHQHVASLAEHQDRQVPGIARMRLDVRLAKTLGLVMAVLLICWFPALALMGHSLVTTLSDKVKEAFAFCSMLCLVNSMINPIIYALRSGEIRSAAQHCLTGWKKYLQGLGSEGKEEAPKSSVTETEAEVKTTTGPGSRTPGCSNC

Cannabinoid receptor 2 [23] = molecular target: T2, Cannabinoid receptor 2; assay: Displacement of [3H]-CP55940 from human CB2 receptor expressed in CHO-K1 cells by liquid scintillation counting; type: cell-based
Cannabinoid receptor 1 [24] = molecular target: T1, Cannabinoid receptor 1; assay: Displacement of [3H]-CP55940 from human CB1 receptor expressed in CHO-K1 cells by liquid scintillation counting; type: cell-based
[25] = Displacement of [3H]-CP55940 from cynomolgus monkey CB2 receptor by liquid scintillation counting; set-up: species or system Macaca fascicularis
Cannabinoid receptor 2 [26] = molecular target: Cannabinoid receptor 2 (Mus musculus, UniProt P47936); assay: Displacement of [3H]-CP55940 from mouse CB2 receptor by liquid scintillation counting
Cannabinoid receptor 2 [27] = molecular target: T2, Cannabinoid receptor 2; assay: Agonist activity at human CB2 receptor expressed in CHO-K1 cells assessed as inhibition of forskolin-induced cAMP accumulation by TR-FRET assay; type: functional, cell-based
Cannabinoid receptor 1 [28] = molecular target: T1, Cannabinoid receptor 1; assay: Agonist activity at human CB1 receptor expressed in CHO-K1 cells assessed as inhibition of forskolin-induced cAMP accumulation by TR-FRET assay; type: functional, cell-based

T1 sequence (P21554 whole entry): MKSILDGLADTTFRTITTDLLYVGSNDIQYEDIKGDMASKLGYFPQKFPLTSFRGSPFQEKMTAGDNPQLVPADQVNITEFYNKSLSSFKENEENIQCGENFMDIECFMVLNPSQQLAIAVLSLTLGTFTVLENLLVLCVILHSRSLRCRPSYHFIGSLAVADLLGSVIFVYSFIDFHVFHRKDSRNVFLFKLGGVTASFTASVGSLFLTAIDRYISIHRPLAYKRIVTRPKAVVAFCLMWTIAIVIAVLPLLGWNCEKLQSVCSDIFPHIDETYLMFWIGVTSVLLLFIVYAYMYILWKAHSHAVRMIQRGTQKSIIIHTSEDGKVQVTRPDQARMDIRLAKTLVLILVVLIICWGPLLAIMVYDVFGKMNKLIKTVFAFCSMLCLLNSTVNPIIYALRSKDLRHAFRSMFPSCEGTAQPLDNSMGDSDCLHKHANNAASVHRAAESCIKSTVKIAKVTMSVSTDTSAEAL
T2 sequence (P34972 whole entry): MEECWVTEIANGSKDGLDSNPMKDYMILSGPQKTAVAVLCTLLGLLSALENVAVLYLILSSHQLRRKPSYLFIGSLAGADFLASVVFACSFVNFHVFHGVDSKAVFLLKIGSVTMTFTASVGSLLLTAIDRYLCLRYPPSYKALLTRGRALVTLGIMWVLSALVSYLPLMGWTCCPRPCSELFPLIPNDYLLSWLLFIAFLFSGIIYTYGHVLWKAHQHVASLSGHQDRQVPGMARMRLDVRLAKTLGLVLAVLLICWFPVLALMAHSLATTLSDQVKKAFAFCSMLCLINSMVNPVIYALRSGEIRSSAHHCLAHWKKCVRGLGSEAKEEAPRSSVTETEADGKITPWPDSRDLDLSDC
Sequence of Cannabinoid receptor 2 (Mus musculus, UniProt P47936) (P47936 whole entry): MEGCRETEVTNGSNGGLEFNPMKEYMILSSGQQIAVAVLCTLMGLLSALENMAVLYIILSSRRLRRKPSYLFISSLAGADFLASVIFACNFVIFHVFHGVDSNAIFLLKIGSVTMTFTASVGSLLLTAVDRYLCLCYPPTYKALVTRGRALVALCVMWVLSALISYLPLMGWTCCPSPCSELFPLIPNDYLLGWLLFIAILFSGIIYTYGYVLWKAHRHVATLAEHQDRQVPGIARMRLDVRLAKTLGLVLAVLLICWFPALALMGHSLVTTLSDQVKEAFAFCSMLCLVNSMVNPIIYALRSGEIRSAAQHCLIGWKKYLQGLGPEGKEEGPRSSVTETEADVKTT
Sequence of Cannabinoid receptor 1 (Rattus norvegicus, UniProt P20272) (P20272 whole entry): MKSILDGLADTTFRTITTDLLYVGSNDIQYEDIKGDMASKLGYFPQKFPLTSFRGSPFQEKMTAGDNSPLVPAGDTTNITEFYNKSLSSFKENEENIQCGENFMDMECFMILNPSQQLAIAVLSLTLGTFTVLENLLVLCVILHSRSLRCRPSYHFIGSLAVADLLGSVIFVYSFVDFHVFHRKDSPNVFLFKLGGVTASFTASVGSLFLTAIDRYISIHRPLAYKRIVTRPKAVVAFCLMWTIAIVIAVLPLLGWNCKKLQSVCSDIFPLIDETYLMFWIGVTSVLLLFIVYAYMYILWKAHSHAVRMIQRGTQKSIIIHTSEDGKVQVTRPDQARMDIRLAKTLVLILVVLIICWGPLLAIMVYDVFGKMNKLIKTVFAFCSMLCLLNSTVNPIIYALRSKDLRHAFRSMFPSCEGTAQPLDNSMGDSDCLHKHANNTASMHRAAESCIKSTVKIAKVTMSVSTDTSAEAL

## CCCCCn1cc(C(=O)c2cccc3ccccc23)c2ccccc21
Cannabinoid receptor 1 [1]
  Ki: 9.5 nM

## O=C(N[C@H](CO)c1ccccc1)c1n[nH]c2c1CCCC[C@H]2Cc1cccc(Cl)c1
Cannabinoid receptor 2 [2]
  EC50: 12 nM
Cannabinoid receptor 1 [3]
  EC50: > 5000 nM

## CCCn1c(C)c(C(=O)c2cccc3cc(OC)ccc23)c2ccccc21
Cannabinoid receptor 1 [1]
  Ki: > 10000 nM

## COc1ccc(-c2nnc(NC(=O)C(C)(C)S(=O)(=O)C3CCOCC3)[nH]2)cc1
Cannabinoid receptor 1 [4]
  EC50: > 20000 nM

## O=S(=O)(c1ccc(Cl)cc1)c1cnc2c(NCC3CCOCC3)cccc2c1
Cannabinoid receptor 2 [5]
  EC50: < 1000 nM

## COc1ccc2c(c1)c(CCN1CCOCC1)c(C)n2C(=O)c1cccc(Cl)c1Cl
Cannabinoid receptor 1 [6]
  Ki: 4800 nM
Cannabinoid receptor 2 [7]
  Ki: 3.8 nM

## CCCCCCC(C)(C)c1cc(O)c2c(c1)OC(C)(C)[C@@H]1CC=C(CO)C[C@@H]21
Cannabinoid receptor 1 [8]
  Ki: 0.73 nM

## CCCCCCC(C)(C)c1cc(O)c2c(c1)OC(C)(C)C1CCC(=O)CC21 (stereo not drawn)
Homo sapiens [9]
  Ratio Ki: 1.2

## COc1cccc2c(C(=O)N[C@@H]3C(C)(C)[C@@H]4CC[C@@]3(C)C4)cn(CCN3CCOCC3)c12
Cannabinoid receptor 2 [10]
  Ki: 11 nM
Cannabinoid receptor 1 [1]
  Ki: 245 nM

## COc1cccc2c(C(=O)c3ccc(Br)c4ccccc34)c(C)n(CCN3CCOCC3)c12
Cannabinoid receptor 1 [1]
  Ki: > 1000 nM

## COc1ccc(C(=O)c2cc3cc(C)n(CCN4CCOCC4)c3s2)cc1
Cannabinoid receptor 2 [11]
  EC50: < 100 nM

## CCCCC/C=C\C/C=C\C/C=C\C/C=C\CCCCOC(CO)CO
Cannabinoid receptor 2 [12]
  Ki: 3000 nM

## CCCCCCC(C)(C)c1cc(O)c2c(c1)OC(C)(C)[C@@H]1CC=C(OO)C[C@@H]21
Cannabinoid receptor 2 [12]
  Ki: 0.032 nM
Cannabinoid receptor 1 [13]
  Ki: 1.2 nM
[14]
  Ratio Ki: 38

## CC(C)(CO)NC(=O)c1nn(-c2ccc(Cl)cc2)c2c1C1CCC2C1 (stereo not drawn)
[15]
  Cmax: 1950 ng/mL
[16]
  AUC(0-inf): 12000 ng·h/mL
[17]
  half-life: 4.8 h

## Cc1sc(NC(=O)N2CCCN(C(=O)C3CCC(F)(F)CC3)CC2)nc1C(C)(C)C
Cannabinoid receptor 2 [18]
  EC50: 0.7 nM

## CC(C)(C)NC(=O)c1nn(-c2ccc(Cl)cc2)c2c1C1CCC2C1 (stereo not drawn)
[15]
  Cmax: 131 ng/mL
[16]
  AUC(0-inf): 1550 ng·h/mL
[17]
  half-life: 7.3 h

## CCCCCCC(C)(C)c1cc(OC)c2c(c1)OC(C)(C)[C@@H]1CC=C(C)C[C@@H]21
Homo sapiens [9]
  Ratio Ki: > 790

## CCC(C)Cn1c(C(C)(C)C)nc2cc(S(=O)(=O)c3ccnc(F)c3)ccc21 (stereo not drawn)
Cannabinoid receptor 2 [19]
  EC50: 0.26 nM
Cannabinoid receptor 1 [20]
  EC50: > 10000 nM
Homo sapiens [21]
  Ratio EC50: > 38000

## C[C@H](NS(=O)(=O)/C=C/c1n[nH]c2c1CCCC[C@@H]2Cc1cccc(F)c1)c1ccccc1
Cannabinoid receptor 2 [2]
  EC50: 9 nM
Cannabinoid receptor 1 [3]
  EC50: > 5000 nM
Homo sapiens [9]
  Ratio Ki: > 550

## Cc1c2n(c(=O)c3cc(OC(=O)C(C)(C)C)cc(OC(=O)C(C)(C)C)c13)CCCC2
Cannabinoid receptor 2 [22]
  Ki: 2.4 nM
Cannabinoid receptor 2 [23]
  Ki: 6.8 nM
Cannabinoid receptor 1 [24]
  Ki: 2630 nM
[25]
  Ki: 5.4 nM
Cannabinoid receptor 2 [26]
  Ki: 4.8 nM
Homo sapiens [9]
  Ratio Ki: 450

## CC(C)(C)c1cn(C[C@H]2CCCO2)/c(=N/C(=O)c2cc(C(F)(F)F)ccc2OCc2ccccn2)s1
Cannabinoid receptor 2 [23]
  EC50: 1 nM
Cannabinoid receptor 1 [24]; read-out: EC50 (the source's name)
  IC50: > 27000 nM

## CCCn1c(C)c(C(=O)c2cc3ccsc3n2CCC)c2ccccc21
Cannabinoid receptor 2 [11]
  EC50: < 100 nM

## CC(C)(CO)c1cc(NC(=O)C(C)(C)S(=O)(=O)C2CCOCC2)on1
Cannabinoid receptor 1 [4]
  EC50: > 50000 nM

## CCCCCCC(C)(C)c1cc(O)c([C@H]2CC(=O)[C@H]3C[C@@H]2C3(C)C)c(OC(=O)/C=C/C(=O)O)c1 [PRS-211375]
Cannabinoid receptor 1 [8]
  Ki: 334 nM
Cannabinoid receptor 2 [12]
  Ki: 9 nM
Homo sapiens [9]
  Ratio Ki: 37

## CN(C1CCOCC1)C(C)(C)C(=O)Nc1cc(C(C)(C)CO)no1
Cannabinoid receptor 1 [4]
  EC50: > 50000 nM

## O=C(NC1CCCC1)c1ccc2c(c1)N(S(=O)(=O)c1ccc(F)cc1)CCS2
Cannabinoid receptor 2 [27]
  EC50: 1 nM
Cannabinoid receptor 1 [28]
  EC50: 10 nM
